According to ChEMBL document CHEMBL5532659, “Design, Synthesis, and Evaluation of Cephamycin-Based Antisporulation Agents targeting Clostridioides difficile” (J Med Chem, 2024):
Values after ≈ are worked out from the molar mass of the structure shown. Active and inactive are the calls of the source. The rule behind the calls is not given here.

Columns and labels:
[1] = Inhibition of Clostridium difficile SpoVD using Boc-FL as substrate preincubated for 30 mins followed by substrate addition measured after 30 mins by FP assay; parameters: species or system Clostridioides difficile
[2] = system: Clostridioides difficile; experiment: Anti-sporulation activity against Clostridium difficile M7404 assessed as fold reduction in spore count incubated overnight by absorbance based assay relative to control; assay type: functional
[3] = system: Clostridioides difficile; experiment: Antimicrobial activity against Clostridium difficile assessed as microbial growth inhibition incubated for 18 hrs; assay type: functional
[4] = system: Staphylococcus aureus; experiment: Antimicrobial activity against methicillin-resistant Staphylococcus aureus ATCC 43300 assessed as microbial growth inhibition incubated for 18 hrs; assay type: functional
[5] = system: Escherichia coli; experiment: Antimicrobial activity against Escherichia coli ATCC 25922 assessed as microbial growth inhibition incubated for 18 hrs; assay type: functional
[6] = system: Klebsiella pneumoniae; experiment: Antimicrobial activity against multidrug-resistant Klebsiella pneumoniae ATCC 700603 assessed as microbial growth inhibition incubated for 18 hrs; assay type: functional
[7] = system: Pseudomonas aeruginosa; experiment: Antimicrobial activity against Pseudomonas aeruginosa ATCC 27853 assessed as microbial growth inhibition incubated for 18 hrs; assay type: functional
[8] = system: Acinetobacter baumannii; experiment: Antimicrobial activity against Acinetobacter baumannii ATCC 19603 assessed as microbial growth inhibition incubated for 18 hrs; assay type: functional
[9] = system: Candida albicans; experiment: Antimicrobial activity against Candida albicans ATCC 90028 assessed as microbial growth inhibition incubated for 36 hrs by resazurin dye based assay; assay type: functional
[10] = system: Cryptococcus neoformans; experiment: Antimicrobial activity against Cryptococcus neoformans ATCC 208821 assessed as microbial growth inhibition incubated for 36 hrs by resazurin dye based assay; assay type: functional
[11] = Cytotoxicity against HEK293 cells incubated for 20 hrs by resazurin dye based assay; assay type: toxicity, cell-based; conditions: human
[12] = system: Erythrocyte; experiment: Hemolytic activity in human RBC incubated for 70 mins by absorbance based assay; assay type: toxicity, cell-based; conditions: 1.167 h
[13] = system: Clostridioides difficile; experiment: Anti-sporulation activity against Clostridium difficile M7404 infected in C57BL/6J mouse model assessed as reduction in spore shedding in faeces at 50 ug/ml pre-infected for 6 hrs followed by compound treatment measured for 2 to 4 days post-infection; assay type: functional, organism-based; conditions: dose 50.0 µg/ml, time 42-90 hrs

Structure (SMILES)	IC50 [1] [nM]	fold change (FC) [2]	MIC50 [3] [µg/mL]	MIC50 [4] [µg/mL]	MIC50 [5] [µg/mL]	MIC50 [6] [µg/mL]	MIC50 [7] [µg/mL]	MIC50 [8] [µg/mL]	MIC50 [9] [µg/mL]	MIC50 [10] [µg/mL]	CC50 at 20 h [11] [µg/mL]	HC10 [12] [µg/mL]	Activity [13]
CO[C@@]1(NC(=O)Cn2cc(-c3ccc4ccccc4c3)nn2)C(=O)N2C(C(=O)O)=C(CSc3nnnn3C)CS[C@@H]21	54	>100000	20 (≈ 33.7 µM)	32 (≈ 53.9 µM)	> 32	> 32	> 32	> 32	> 32	> 32	> 32	> 32	
CO[C@@]1(NC(=O)C2SC(=C(C(N)=O)C(=O)O)S2)C(=O)N2C(C(=O)O)=C(CSc3nnnn3C)CS[C@@H]21 (some centres undefined) [CEFOTETAN]	15	10000	20 (≈ 34.7 µM)	> 32	4 (≈ 6.95 µM)	> 32	> 32	> 32	> 32	> 32	> 32	> 32	
CO[C@@]1(NC(=O)Cn2cc(-c3ccc(C#N)cc3)nn2)C(=O)N2C(C(=O)O)=C(CSc3nnnn3C)CS[C@@H]21	72	>100000	> 40	> 32	32 (≈ 56.3 µM)	> 32	> 32	> 32	> 32	> 32	> 32	> 32	
CO[C@@]1(NC(=O)Cn2cc(-c3cccc4cccnc34)nn2)C(=O)N2C(C(=O)O)=C(CSc3nnnn3C)CS[C@@H]21	472	100	> 40	32 (≈ 53.8 µM)	> 32	> 32	> 32	> 32	> 32	> 32	> 32	> 32	
CO[C@@]1(NC(=O)Cn2cc(-c3cccc(C(=O)O)c3)nn2)C(=O)N2C(C(=O)O)=C(CSc3nnnn3C)CS[C@@H]21	69	1000	5 (≈ 8.51 µM)	32 (≈ 54.5 µM)	8 (≈ 13.6 µM)	32 (≈ 54.5 µM)	> 32	> 32	> 32	> 32	> 32	> 32	
CO[C@@]1(NC(=O)Cn2cc(-c3cccc(F)c3)nn2)C(=O)N2C(C(=O)O)=C(CSc3nnnn3C)CS[C@@H]21	131	1000	5 (≈ 8.9 µM)	32 (≈ 57 µM)	32 (≈ 57 µM)	> 32	> 32	> 32	> 32	> 32	13.2 (≈ 23.5 µM)	> 32	
CO[C@@]1(NC(=O)Cn2cc(CO)nn2)C(=O)N2C(C(=O)O)=C(CSc3nnnn3C)CS[C@@H]21	369	10	10 (≈ 20.1 µM)	32 (≈ 64.3 µM)	16 (≈ 32.2 µM)	16 (≈ 32.2 µM)	> 32	> 32	> 32	> 32	> 32	> 32	
COc1ccc(-c2cn(CC(=O)N[C@]3(OC)C(=O)N4C(C(=O)O)=C(CSc5nnnn5C)CS[C@@H]43)nn2)cc1	> 15000	100	10 (≈ 17.4 µM)	32 (≈ 55.8 µM)	32 (≈ 55.8 µM)	> 32	> 32	> 32	> 32	> 32	> 32	> 32	
CO[C@@]1(NC(=O)Cn2cc(C(=O)O)nn2)C(=O)N2C(C(=O)O)=C(CSc3nnnn3C)CS[C@@H]21		100	20 (≈ 39.1 µM)	≤ 0.25	16 (≈ 31.3 µM)	> 32	> 32	> 32	> 32	> 32	> 32	> 32	
CO[C@@]1(NC(=O)Cn2cc(-c3cccc4ccccc34)nn2)C(=O)N2C(C(=O)O)=C(CSc3nnnn3C)CS[C@@H]21	86	>100000	40 (≈ 67.4 µM)	8 (≈ 13.5 µM)	32 (≈ 53.9 µM)	> 32	> 32	> 32	> 32	> 32	> 32	> 32	
CO[C@@]1(NC(=O)Cn2cc(C3CCCCC3)nn2)C(=O)N2C(C(=O)O)=C(CSc3nnnn3C)CS[C@@H]21	90	>100000	5 (≈ 9.1 µM)	32 (≈ 58.2 µM)	32 (≈ 58.2 µM)	> 32	> 32	> 32	> 32	> 32	> 32	10	
CO[C@@]1(NC(=O)Cn2cc(C(C)(C)O)nn2)C(=O)N2C(C(=O)O)=C(CSc3nnnn3C)CS[C@@H]21		100	40 (≈ 76.1 µM)	32 (≈ 60.9 µM)	32 (≈ 60.9 µM)	32 (≈ 60.9 µM)	> 32	> 32	> 32	> 32	0.7 (≈ 1.33 µM)	17	
CO[C@@]1(NC(=O)Cn2cc(CCC(C)C)nn2)C(=O)N2C(C(=O)O)=C(CSc3nnnn3C)CS[C@@H]21	142	1000	5 (≈ 9.3 µM)	32 (≈ 59.5 µM)	32 (≈ 59.5 µM)	> 32	> 32	> 32	> 32	> 32	16.1 (≈ 29.9 µM)	> 32	
CO[C@@]1(NC(=O)Cn2cc(-c3ccccc3)nn2)C(=O)N2C(C(=O)O)=C(CSc3nnnn3C)CS[C@@H]21	89	>100000	5 (≈ 9.2 µM)	32 (≈ 58.9 µM)	32 (≈ 58.9 µM)	32 (≈ 58.9 µM)	> 32	> 32	> 32	> 32	> 32	> 32	Active
CO[C@@]1(NC(=O)Cn2cc(-c3ccc(C(=O)O)cc3)nn2)C(=O)N2C(C(=O)O)=C(CSc3nnnn3C)CS[C@@H]21	115	1000	10 (≈ 17 µM)	32 (≈ 54.5 µM)	32 (≈ 54.5 µM)	32 (≈ 54.5 µM)	> 32	> 32	> 32	> 32	> 32	> 32	
